Laboratory results taken from patent US20080004273A1, “Inhibitors of protein tyrosine kinase activity” (priority 2006, published 2008).

Experiments:
DU145 = DU145 scattering inhibition; conditions: Homo sapiens, DU-145, read-out: Potency in cell-based assays DU145 scattering inhibition
MNNGHOS tumor xenograft = assay: In vivo solid tumor disease model, MNNGHOS tumor xenograft; conditions: MNNGHOS xenograft in mice, dosed orally at 40 mg/kg in PEG 400/0.1 N HCl in saline (40:60)
Description: In Vivo Solid Tumor Disease Model
This test measures the capacity of compounds to inhibit solid tumor growth.
Tumor xenografts are established in the flank of female athymic CDl mice (Charles River Inc.), by subcutaneous injection of 1X10^6 cells/mouse. Once established, tumors are then serially passaged s.c. in nude mice hosts. Tumor fragments from these host animals are used in subsequent compound evaluation experiments. For compound evaluation experiments female nude mice weighing approximately 20 g are implanted s.c. by surgical implantation with tumor fragments of 30 mg from donor tumors. When the tumors are approximately 100 mm^3 in size (˜7-10 days following implantation), the animals are randomized and separated into treatment and control groups. Each group contains 6-8 tumor-bearing mice, each of which is ear-tagged and followed individually throughout the experiment.
Mice are weighed and tumor measurements are taken by calipers three times weekly, starting on Day 1. These tumor measurements are converted to tumor volume by the well-known formula […]. The experiment is terminated when the control tumors reach a size of approximately 1500 mm^3. […] In addition to tumor volumes, body weight of animals is monitored twice weekly for up to 3 weeks. […]

IC50 (DU145): 0.4 µM
SMILES: COc1cc2nccc(Oc3ccc(NC(=O)N4CCN(c5ccccc5)C4=O)cc3F)c2cc1OC [Example 2, N-(4-(6,7-Dimethoxyquinolin-4-yloxy)-3-fluorophenyl)-2-oxo-3-phenylimidazolidine-1-carboxamide]
effect on tumors (MNNGHOS tumor xenograft): full regression of the tumors
tumor growth inhibition (MNNGHOS tumor xenograft): 112%
